# Data as given in patent US9169246B2, “Pyrazoloquinolinone derivatives, preparation thereof and therapeutic use thereof” (SANOFI, priority 2011, dated 2015).
# Tested on: HUVEC cells
# Test: Test of in vitro proliferation of HUVEC cells induced with FGF-2
# Assay type: cell-based
# Conditions: Homo sapiens, FGF-2 1 ng/ml induced proliferation, ATP luminescence, head says M, cells print nM
# Description: The compounds according to the invention underwent biochemical studies in order to determine their capacity to inhibit the enzyme methionine-aminopeptidase2 (enzymatic test on isolated enzyme). […] Consequently, the compounds of the invention that show good activity in the MetAP2 enzymatic test were evaluated in a test of in vitro proliferation of HUVEC cells induced with FGF-2. […] After incubation for 48 hours, the medium is aspirated and replaced with the deprivation medium RPMI1640 mentioned previously. A second stimulation is then performed. The cells are again incubated at 37° C. in the presence of CO2. After incubation for 72 hours, the medium is again aspirated and 100 μl of Cell Titer-GLOTM Luminescent Cell Viability Assay (Promega, G7571) are added over 10 minutes. The amount of ATP present in the cells, measured using a luminometer, is proportional to the number cells per well corresponding to the cell proliferation.
row,Structure (SMILES),IC50
1,"Cc1cc(-c2ccc3c4[nH]ncc4c(=O)n(CC(F)(F)F)c3c2)ccn1 [Compound 186, 7-(2-methylpyrid-4-yl)-5-(2,2,2-trifluoroethyl)-1,5-dihydro-4H-pyrazolo[4,3-c]quinolin-4-one]",360 nM
2,"O=c1c2cn[nH]c2c2ccc(-c3ccccc3F)cc2n1CC(F)(F)F [Compound 3, 7-(2-fluorophenyl)-5-(2,2,2-trifluoroethyl)-1,5-dihydro-4H-pyrazolo[4,3-c]quinolin-4-one]",660 nM
